ChEMBL document CHEMBL3272262, “Basic derivatives of 6,7-dihydroindolo(1,7-ab)(1) benzazepine and 6H-indolo(7,1-cd)(1,5) benzoxazepine as potential antidepressant agents” (J Med Chem, 1976)
≈ marks a conversion by molar mass, not a printed value.

How the values were obtained:
Mus musculus [1] = assay: Antidepressant activity in po dosed Swiss mouse assessed as reversal of reserpine-induced ptosis administered 1 hr prior to reserpine challenge; assay type: functional
Mus musculus [2] = assay: Antidepressant activity in po dosed Swiss mouse assessed as reversal of reserpine-induced hypothermia measured over 5 hrs; assay type: functional
[3] = Acute toxicity in po dosed Swiss mouse assessed as mortality after 7 days; assay type: organism-based; conditions: in vivo
Mus musculus [4] = assay: Toxicity in po dosed Swiss mouse assessed as behavioral changes; assay type: organism-based; conditions: in vivo
Ileum [5] = assay: Antispasmodic activity in guinea pig ileum assessed as inhibition of histamine-induced spasm; assay type: functional; conditions: Cavia porcellus, read-out: ED50 (the source's name)
Ileum [6] = assay: Antispasmodic activity in guinea pig ileum assessed as inhibition of acetylcholine-induced spasm; assay type: functional; conditions: Cavia porcellus, read-out: ED50 (the source's name)

## Cc1c(CCN(C)C)n2c3c(cccc13)COc1ccccc1-2.Cl
Mus musculus [1]
  MED50: 10 mg/kg
Mus musculus [2]
  MED50: >50 mg/kg
[3]
  LD50 at 168 h: 310 mg/kg
Mus musculus [4]
  Activity: Non-toxic

## CN(C)CCc1cc2cccc3c2n1-c1ccccc1OC3.Cl
Mus musculus [1]
  MED50: 3 mg/kg
Ileum [5]
  EC50: 1 µg/mL
Mus musculus [2]
  MED50: 50 mg/kg
Ileum [6]
  EC50: 10 µg/mL
[3]
  LD50 at 168 h: 195 mg/kg
Mus musculus [4]
  Activity: Non-toxic

## CN(C)CCc1cc2cccc3c2n1-c1ccccc1CC3
Mus musculus [1]
  MED50: 2 mg/kg
Ileum [5]
  EC50: 0.2 µg/mL (≈ 0.689 µM)
Mus musculus [2]
  MED50: 5 mg/kg
Ileum [6]
  EC50: 1 µg/mL (≈ 3.44 µM)
[3]
  LD50 at 168 h: 420 mg/kg
Mus musculus [4]
  Activity: Non-toxic

## Cl.c1ccc(CN(CCc2cc3cccc4c3n2-c2ccccc2CC4)Cc2ccccc2)cc1
Mus musculus [1]
  MED50: 50 mg/kg
Ileum [5]
  EC50: > 10 µg/mL
Mus musculus [2]
  MED50: > 50 mg/kg
Ileum [6]
  EC50: > 10 µg/mL
[3]
  LD50 at 168 h: 1400 mg/kg
Mus musculus [4]
  Activity: Non-toxic

## CNCCc1cc2cccc3c2n1-c1ccccc1CC3.Cl
Mus musculus [1]
  MED50: 1 mg/kg
Ileum [5]
  EC50: 0.6 µg/mL
Mus musculus [2]
  MED50: 2.5 mg/kg
Ileum [6]
  EC50: 4 µg/mL
[3]
  LD50 at 168 h: 410 mg/kg
Mus musculus [4]
  Activity: Non-toxic

## Cc1c(CCN(C)C)n2c3c(cccc13)CCc1ccccc1-2
Mus musculus [1]
  MED50: 7.5 mg/kg
Ileum [5]
  EC50: > 10 µg/mL
Mus musculus [2]
  MED50: >50 mg/kg
Ileum [6]
  EC50: > 10 µg/mL
[3]
  LD50 at 168 h: 195 mg/kg
Mus musculus [4]
  Activity: Non-toxic

## Cc1c(CCN(C)Cc2ccccc2)n2c3c(cccc13)CCc1ccccc1-2.Cl
Mus musculus [1]
  MED50: >50 mg/kg
Mus musculus [2]
  MED50: >50 mg/kg
[3]
  LD50 at 168 h: > 4000 mg/kg
Mus musculus [4]
  Activity: Non-toxic

## CNCCc1c(C)c2cccc3c2n1-c1ccccc1CC3.Cl
Mus musculus [1]
  MED50: 2.5 mg/kg
Ileum [5]
  EC50: 5 µg/mL
Mus musculus [2]
  MED50: >50 mg/kg
Ileum [6]
  EC50: 6 µg/mL
[3]
  LD50 at 168 h: 390 mg/kg
Mus musculus [4]
  Activity: Non-toxic

## CN(C)Cc1cc2cccc3c2n1-c1ccccc1CC3
Mus musculus [1]
  MED50: >50 mg/kg
Mus musculus [2]
  MED50: >50 mg/kg
[3]
  LD50 at 168 h: 210 mg/kg
Mus musculus [4]
  Activity: Non-toxic

## CN(C)CCc1c(-c2ccccc2)c2cccc3c2n1-c1ccccc1CC3
Mus musculus [1]
  MED50: >50 mg/kg
Mus musculus [2]
  MED50: >50 mg/kg
[3]
  LD50 at 168 h: 1900 mg/kg
Mus musculus [4]
  Activity: Non-toxic

## CN(C)Cc1cn2c3c(cccc13)CCc1ccccc1-2.Cl
Mus musculus [1]
  MED50: >50 mg/kg
Mus musculus [2]
  MED50: >50 mg/kg
[3]
  LD50 at 168 h: 170 mg/kg
Mus musculus [4]
  Activity: Non-toxic

## Cc1c(CN(C)C)c2cccc3c2n1-c1ccccc1CC3
Mus musculus [1]
  MED50: >50 mg/kg
Mus musculus [2]
  MED50: >50 mg/kg
[3]
  LD50 at 168 h: 450 mg/kg
Mus musculus [4]
  Activity: Non-toxic

## CN(C)Cc1c(-c2ccccc2)n2c3c(cccc13)CCc1ccccc1-2
Mus musculus [1]
  MED50: >50 mg/kg
Mus musculus [2]
  MED50: >50 mg/kg
[3]
  LD50 at 168 h: 1600 mg/kg
Mus musculus [4]
  Activity: Non-toxic

## CN(CCc1cc2cccc3c2n1-c1ccccc1CC3)Cc1ccccc1.Cl [AZIPRAMINE HYDROCHLORIDE]
Mus musculus [1]
  MED50: 3.5 mg/kg
Ileum [5]
  EC50: > 5 µg/mL
Mus musculus [2]
  MED50: 5 mg/kg
Ileum [6]
  EC50: > 5 µg/mL
[3]
  LD50 at 168 h: > 4000 mg/kg
Mus musculus [4]
  Activity: Non-toxic

## CN(C)CCCN1c2ccccc2CCc2ccccc21 [IMIPRAMINE]
Mus musculus [1]
  MED50: 2.5 mg/kg
Ileum [5]
  EC50: 0.006 µg/mL (≈ 0.0214 µM)
Mus musculus [2]
  MED50: 2.5 mg/kg
Ileum [6]
  EC50: 0.3 µg/mL (≈ 1.07 µM)
